Measured values taken from ChEMBL document CHEMBL5532682, “Recent advances of tryptanthrin and its derivatives as potential anticancer agents” (RSC Med Chem, 2024).
Each block holds one compound with its values, some of them ahead of it.

Legend:
K562 [1] = test: Antiproliferative activity against human K562 cells; format: functional, cell-based
CT26 = test: Antiproliferative activity against mouse CT26 cells incubated for 48 hrs; format: functional, cell-based; details: CT26, 48 h
K562 [2] = test: Antiproliferative activity against human K562 cells incubated for 48 hrs; format: functional, cell-based; details: K562, 48 h
HeLa [3] = test: Antiproliferative activity against human HeLa cells incubated for 48 hrs; format: functional, cell-based
PC-3 = test: Antiproliferative activity against human PC-3 cells incubated by 48 hrs by MTT assay; format: functional, cell-based; details: PC-3, 48 h
A549 [4] = test: Antiproliferative activity against human A549 cells assessed as cell growth inhibition; format: functional, cell-based
A549 [5] = test: Antiproliferative activity against human A549 cells assessed as inhibition of cell viability; format: functional, cell-based
[6] = Antiproliferative activity against human HL7702 cells assessed as inhibition of cell growth; format: toxicity, cell-based; details: HL7702 (L02) cells
NCI/ADR-RES = test: Antiproliferative activity against human MCF7ADR cells; format: functional, cell-based
K562 [7] = test: Antiproliferative activity against human K562 cells incubated by 48 hrs by MTT assay; format: functional, cell-based; details: K562, 48 h
MGC-803 = test: Antiproliferative activity against human MGC-803 cells measured after 48 hrs by MTT assay; format: functional, cell-based; details: MGC-803, 48 h
T-24 [8] = test: Antiproliferative activity against human T24 cells assessed as inhibition of cell growth; format: functional, cell-based
[9] = Antiproliferative activity against human HL7702 cells measured after 48 hrs by MTT assay; format: toxicity, cell-based; details: HL7702 (L02) cells
WEHI3B = test: Antiproliferative activity against mouse WEHI3B cells assessed as inhibition of cell growth measured after 48 hrs; format: functional, cell-based
A549 [10] = test: Antiproliferative activity against human A549 cells measured after 48 hrs by MTT assay; format: functional, cell-based; details: A549, 48 h
A549 [11] = test: Antiproliferative activity against human A549 cells incubated by 48 hrs by MTT assay; format: functional, cell-based; details: A549, 48 h
SK-OV-3 = test: Antiproliferative activity against human SK-OV-3 cells assessed as inhibition of cell growth; format: functional, cell-based
HepG2 [12] = test: Antiproliferative activity against human HepG2 cells assessed as inhibition of cell growth; format: functional, cell-based
HCT-116 = test: Antiproliferative activity against human HCT-116 cells measured after 48 hrs by MTT assay; format: functional, cell-based; details: HCT-116, 48 h
MDA-MB-231 = test: Antiproliferative activity against human MDA-MB-231 cells measured after 48 hrs by MTT assay; format: functional, cell-based; details: MDA-MB-231, 48 h
HepG2 [13] = test: Antiproliferative activity against human HepG2 cells measured after 48 hrs by MTT assay; format: functional, cell-based; details: HepG2, 48 h
T-24 [14] = test: Antiproliferative activity against human T24 cells measured after 48 hrs by MTT assay; format: functional, cell-based; details: T-24, 48 h
A549 [15] = test: Antiproliferative activity against human A549 cells; format: functional, cell-based
HeLa [16] = test: Antiproliferative activity against human HeLa cells assessed as cell growth inhibition; format: functional, cell-based
[17] = Antiproliferative activity against human HL7702 cells assessed as inhibition of cell viability; format: toxicity, cell-based; details: HL7702 (L02) cells
[18] = Antiproliferative activity against mouse MC3T3-E1 cells; format: toxicity, cell-based
Bel-7402 = test: Antiproliferative activity against human Bel-7402 cells measured after 48 hrs by MTT assay; format: functional, cell-based; details: Bel-7402, 48 h
A549/CDDP = test: Antiproliferative activity against human A549/DDP cells assessed as inhibition of cell viability; format: functional, cell-based
HepG2 [19] = test: Antiproliferative activity against human HepG2 cells incubated by 48 hrs by MTT assay; format: functional, cell-based; details: HepG2, 48 h
MCF7 = test: Antiproliferative activity against human MCF7 cells; format: functional, cell-based

IC50 (K562 [1]): 4.8 µM
IC50 (CT26): > 50 µM
IC50 (K562 [2]): 4.8 µM
IC50 (HeLa [3]): > 50 µM
SMILES: CC(C)NC(=O)[C@@H]1[C@@]2(c3ccccc3)[C@H]3CCCN3[C@@]3(c4ccccc4-n4c3nc3ccccc3c4=O)[C@@]12c1ccccc1

IC50 (PC-3): 14.5 µM
IC50 (A549 [4]): > 150 µM
IC50 (A549 [5]): > 100 µM
IC50 (K562 [7]): 12 µM
IC50 (MGC-803): 70.2 µM
IC50 (A549 [10]): 74.7 µM
IC50 (A549 [11]): 8.25 µM
IC50 (SK-OV-3): 85.1 µM
IC50 (HepG2 [12]): 90.1 µM
IC50 (HCT-116): 17.5 µM
IC50 (MDA-MB-231): > 100 µM
IC50 (HepG2 [13]): 90.1 µM
IC50 (A549 [15]): 74.7 µM
IC50 (HeLa [16]): > 150 µM
IC50 (Bel-7402): 41.3 µM
IC50 (A549/CDDP): > 100 µM
IC50 (HepG2 [19]): 9.51 µM
IC50 (MCF7): 94.2 µM
SMILES: O=C1c2ccccc2-n2c1nc1ccccc1c2=O [TRYPTANTHRIN]
IC50 [6]: 90.1 µM
IC50 (NCI/ADR-RES): 96.4 µM
IC50 (T-24 [8]): > 150 µM
IC50 at 48 h [9]: 90.1 µM
IC50 (WEHI3B): 1.5 µM
IC50 (T-24 [14]): > 150 µM
IC50 [17]: > 100 µM
IC50 [18]: > 100 µM
